Test results taken from ChEMBL document CHEMBL4627246, “Pyroglutamide-Based P2X7 Receptor Antagonists Targeting Inflammatory Bowel Disease” (J Med Chem, 2020).

Columns and labels:
Type in all cases: cell-based
HCT-116 = experiment: Cytotoxicity against human HCT116 cells assessed as effect on cell growth at 10 uM incubated for 48 hrs by sulforhodamine B assay; details: hct-116, 48 h
HT-29 = experiment: Cytotoxicity against human HT-29 cells assessed as effect on cell growth at 10 uM incubated for 48 hrs by sulforhodamine B assay; details: ht-29, 48 h
NCI-H460 = experiment: Cytotoxicity against human NCI-H460 cells assessed as effect on cell growth at 10 uM incubated for 48 hrs by sulforhodamine B assay; details: nci-h460, 48 h
U-251 = experiment: Cytotoxicity against human U251 cells assessed as effect on cell growth at 10 uM incubated for 48 hrs by sulforhodamine B assay; details: u-251, 48 h
SNB-75 = experiment: Cytotoxicity against human SNB75 cells assessed as effect on cell growth at 10 uM incubated for 48 hrs by sulforhodamine B assay; details: snb-75, 48 h
HCT-15 = experiment: Cytotoxicity against human HCT15 cells assessed as effect on cell growth at 10 uM incubated for 48 hrs by sulforhodamine B assay; details: hct-15, 48 h
MCF7 = experiment: Cytotoxicity against human MCF7 cells assessed as effect on cell growth at 10 uM incubated for 48 hrs by sulforhodamine B assay; details: mcf7, 48 h
ACHN = experiment: Cytotoxicity against human ACHN cells assessed as effect on cell growth at 10 uM incubated for 48 hrs by sulforhodamine B assay
RPMI-8226 = experiment: Cytotoxicity against human RPMI8226 cells assessed as effect on cell growth at 10 uM incubated for 48 hrs by sulforhodamine B assay; details: rpmi-8226, 48 h
NCI-H322M = experiment: Cytotoxicity against human NCI-H322M cells assessed as effect on cell growth at 10 uM incubated for 48 hrs by sulforhodamine B assay
BT-549 = experiment: Cytotoxicity against human BT549 cells assessed as effect on cell growth at 10 uM incubated for 48 hrs by sulforhodamine B assay; details: bt-549, 48 h
Hs-578T = experiment: Cytotoxicity against human Hs 578T cells assessed as effect on cell growth at 10 uM incubated for 48 hrs by sulforhodamine B assay
DU-145 = experiment: Cytotoxicity against human DU145 cells assessed as effect on cell growth at 10 uM incubated for 48 hrs by sulforhodamine B assay; details: du-145, 48 h
MDA-MB-468 = experiment: Cytotoxicity against human MDA-MB-468 cells assessed as effect on cell growth at 10 uM incubated for 48 hrs by sulforhodamine B assay; details: mda-mb-468, 48 h
KM12 = experiment: Cytotoxicity against human KM12 cells assessed as effect on cell growth at 10 uM incubated for 48 hrs by sulforhodamine B assay; details: km12, 48 h
IGROV-1 = experiment: Cytotoxicity against human IGROV1 cells assessed as effect on cell growth at 10 uM incubated for 48 hrs by sulforhodamine B assay; details: igrov-1, 48 h
UACC-62 = experiment: Cytotoxicity against human UACC62 cells assessed as effect on cell growth at 10 uM incubated for 48 hrs by sulforhodamine B assay; details: uacc-62, 48 h
CAKI-1 = experiment: Growth inhibition of human Caki1 cells assessed as growth percentage at 10 uM incubated for 48 hrs by sulforhodamine B assay; details: caki-1, 48 h
MDA-MB-435 = experiment: Cytotoxicity against human MDA-MB-435 cells assessed as effect on cell growth at 10 uM incubated for 48 hrs by sulforhodamine B assay; details: mda-mb-435, 48 h
UO-31 = experiment: Cytotoxicity against human UO31 cells assessed as effect on cell growth at 10 uM incubated for 48 hrs by sulforhodamine B assay; details: uo-31, 48 h

Measured: Activity

COc1ccc(CNC(=O)[C@@H]2CCC(=O)N2Cc2ccc(Cl)cc2Cl)c(OC)c1
Non-Toxic: all assays above

CCCCCCN1C(=O)[C@@H]2C/C(=C\N(C)C)C(=O)N2C1N(C)C (stereo not given in full)
Non-Toxic: all assays above

CN1C(=O)CC[C@H]1C(=O)NCc1cccc(C(F)(F)F)c1Cl [GSK1482160]
Non-Toxic: all assays above

O=C(NCc1ccc(Cl)cc1Cl)[C@@H]1CCC(=O)N1c1ccccc1
Non-Toxic: all assays above

COc1ccc(NC(=O)[C@@H]2CCC(=O)N2)cc1OC
Non-Toxic: all assays above

CN1C(=O)CC[C@H]1C(=O)NCc1cc(C(F)(F)F)ccc1Cl
Non-Toxic: all assays above

O=C(NCc1ccc(Cl)cc1Cl)[C@@H]1CCC(=O)N1c1nccs1
Non-Toxic: all assays above

CN(C)/C=C1\C[C@H]2C(=O)N(/C(=C/N(C)C)c3ccncc3)C(N(C)C)N2C1=O (stereo not given in full)
Non-Toxic: all assays above

O=C1N[C@H](C(=O)NCc2ccc(Cl)cc2Cl)C/C1=N\O (stereo in doubt)
Non-Toxic: all assays above

O=C(NCc1ccc(Cl)cc1Cl)[C@@H]1CCC(=O)N1c1ccsc1
Non-Toxic: all assays above

O=C(NCc1ccccc1Cl)[C@@H]1CCC(=O)N1c1ccccc1
Non-Toxic: all assays above

CN(C)C(=O)[C@@H]1CCC(=O)N1
Non-Toxic: all assays above

O=C(NCc1ccc(Cl)cc1Cl)[C@@H]1COC(=O)N1c1cccs1
Non-Toxic: all assays above

CN(C)/C=C1\C[C@@H](C(=O)NCc2ccc(Cl)cc2Cl)N(c2cccs2)C1=O
Non-Toxic: all assays above
